Measured values as given in US11214594B2, “Antimicrobial peptide having synergistic antibacterial effect with antibiotics on multidrug resistant bacteria, and use thereof” (priority 2016, dated 2022).
Read-outs that look alike come from different tables or passages of the source. Where a SMILES comes first, the peptide text is derived from it. [ ]: non-standard residue; d: D form.

Key:
A. baumannii [1] = experiment: MIC of antibiotic during combined treatment with antimicrobial peptide; format: cell-based, Acinetobacter baumannii; settings: A. baumannii
Procedure, shortened: (§1)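 First, antibiotic solution is diluted with MH medium; next, the dilution is dispensed into wells containing peptide; finally, the orientation is swapped and MIC of each mixture determined.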

MDREC 1229 [2] = experiment: as above; format: cell-based, Escherichia coli
Procedure, shortened: (§2)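 Broth microdilution in MH medium; strains were diluted to 2×10^6 CFU per ml before plating. Peptide was serially diluted stepwise at 2:1 starting from its MIC, and MH-diluted antibiotic was then added to determine MIC. The reversed arrangement was also tested.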

MDRAB 12036 = format: cell-based, Acinetobacter baumannii
Procedure, shortened: (§3)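 Broth microdilution in MH medium: bacterial strains diluted to 2×10^6 CFU were mixed with equal volumes of peptide serially diluted twofold in MH medium.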

MDRAB 12035 = experiment: MIC of antimicrobial peptide during combined treatment with antibiotic; format: cell-based, Acinetobacter baumannii
Procedure, shortened: as §2

A. baumannii [3] = experiment: as above; format: cell-based, Acinetobacter baumannii
Procedure, shortened: as §2

MDREC 1229 [4] = experiment: microbe, parasite or virus in culture; format: cell-based, Escherichia coli
Procedure, shortened: as §3

E. coli [5] = experiment: microbe, parasite or virus in culture; format: cell-based, Escherichia coli; settings: 16 h
Procedure, shortened: as §3

E. coli [6] = experiment: MIC of antibiotic during combined treatment with antimicrobial peptide; format: cell-based, Escherichia coli; settings: for Antibiotic MIC, Erythromycin / Antibiotic MIC, Linezolid / Antibiotic MIC, Vancomycin: E. coli
Procedure, shortened: as §1

MDRST 8007 = experiment: Minimal inhibitory concentration (MIC), single agent; format: cell-based, Salmonella typhimurium; settings: agent alone
Procedure, shortened: as §3

S. aureus = experiment: microbe, parasite or virus in culture; format: cell-based, Staphylococcus aureus
Procedure, shortened: as §3

B. subtilis = experiment: microbe, parasite or virus in culture; format: cell-based, Bacillus subtilis
Procedure, shortened: as §3

MDREC 1229 [7] = format: cell-based, Escherichia coli
Procedure, shortened: as §2

E. coli [8] = format: cell-based, Escherichia coli; settings: E. coli
Procedure, shortened: as §2

[9] = combined with peptide at 1 μg/ml
[10] = combined with peptide at 2 μg/ml
[11] = combined with peptide at 4 μg/ml
[12] = combined with peptide at 6 μg/ml
[13] = combined with peptide at 8 μg/ml
[14] = combined with peptide at 16 μg/ml
[15] = combined with peptide at 32 μg/ml
[16] = combined with peptide at 64 μg/ml
[17] = peptide treatment concentration 1 μg/ml
[18] = peptide treatment concentration 2 μg/ml
[19] = peptide treatment concentration 4 μg/ml
[20] = peptide treatment concentration 6 μg/ml
[21] = peptide treatment concentration 8 μg/ml
[22] = peptide treatment concentration 16 μg/ml
[23] = peptide treatment concentration 32 μg/ml
[24] = peptide treatment concentration 64 μg/ml
[25] = erythromycin 4 μg/ml (Conc./MIC 1/8)
[26] = erythromycin 8 μg/ml (Conc./MIC 1/4)
[27] = erythromycin 16 μg/ml (Conc./MIC 1/2)
[28] = erythromycin 32 μg/ml (Conc./MIC 1)
[29] = linezolid 64 μg/ml (Conc./MIC 1/8)
[30] = linezolid 512 μg/ml (Conc./MIC 1)
[31] = vancomycin 512 μg/ml (Conc./MIC 1/2)
[32] = vancomycin 1024 μg/ml (Conc./MIC 1)

CC[C@H](C)[C@H](NC(=O)[C@H](CCCCN)NC(=O)[C@H](Cc1c[nH]c2ccccc12)NC(=O)[C@@H](N)CCCNC(=N)N)C(=O)N[C@@H](Cc1ccccc1)C(=O)N[C@@H](CCCCN)C(=O)N[C@@H](CCCCN)C(=O)N[C@H](C(=O)N[C@H](CCCCN)C(=O)N[C@@H](CCCCN)C(=O)N[C@@H](CC(C)C)C(=O)N[C@@H](CC(C)C)C(=O)N[C@@H](Cc1c[nH]cn1)C(=O)N[C@@H](CCCCN)C(=O)N[C@@H](C)C(=O)N[C@@H](CCCCN)C(=O)N[C@@H](CCCCN)C(=O)N[C@@H](Cc1c[nH]c2ccccc12)C(N)=O)[C@@H](C)CC [PapMA-18, RWK IFK KIk KLL HKA KKW-NH2] (H-RWKIFKKI[dK]KLLHKAKKW-NH2; N-terminus assumed)
64 µg/mL: Antibiotic MIC, Linezolid (A. baumannii [1]; [11]) | Antibiotic MIC, Linezolid (MDREC 1229 [2]; [19]) | Minimal inhibitory concentration MIC (MDREC 1229 [4]) | Peptide MIC, peptide alone (MDREC 1229 [4]) | Minimal inhibitory concentration MIC (E. coli [5]) | Antibiotic MIC, Linezolid (E. coli [6]; linezolid combined with peptide at 4 μg/ml) | Minimal inhibitory concentration MIC (MDRST 8007)
>128 µg/mL: Antibiotic MIC, Linezolid (A. baumannii [1]; [9]) | Antibiotic MIC, Vancomycin (A. baumannii [1]; [9]) | Antibiotic MIC, Vancomycin (A. baumannii [1]; [10]) | Antibiotic MIC, Erythromycin (MDREC 1229 [2]; [17]) | Antibiotic MIC, Linezolid (MDREC 1229 [2]; [17]) | Antibiotic MIC, Vancomycin (MDREC 1229 [2]; [17]) | Antibiotic MIC, Linezolid (MDREC 1229 [2]; [18]) | Antibiotic MIC, Vancomycin (MDREC 1229 [2]; [18]) | Antibiotic MIC, Vancomycin (MDREC 1229 [2]; [19]) | Antibiotic MIC, Linezolid (E. coli [6]; linezolid combined with peptide at 1 μg/ml) | Antibiotic MIC, Linezolid (E. coli [6]; linezolid combined with peptide at 2 μg/ml) | Antibiotic MIC, Vancomycin (E. coli [6]; vancomycin combined with peptide at 1 μg/ml) | Antibiotic MIC, Vancomycin (E. coli [6]; vancomycin combined with peptide at 2 μg/ml) | Antibiotic MIC, Vancomycin (E. coli [6]; vancomycin combined with peptide at 4 μg/ml) | Minimal inhibitory concentration MIC (S. aureus) | Minimal inhibitory concentration MIC (B. subtilis)
128 µg/mL: Antibiotic MIC, Linezolid (A. baumannii [1]; [10]) | Antibiotic MIC, Vancomycin (A. baumannii [1]; [11]) | Antibiotic MIC, Erythromycin (E. coli [6]; erythromycin combined with peptide at 1 μg/ml)
16 µg/mL: Antibiotic MIC, Erythromycin (A. baumannii [1]; [11]) | Antibiotic MIC, Linezolid (A. baumannii [1]; [13]) | Antibiotic MIC, Vancomycin (A. baumannii [1]; [13]) | Antibiotic MIC, Vancomycin (A. baumannii [1]; [14]) | Antibiotic MIC, Erythromycin (MDREC 1229 [2]; [19]) | Antibiotic MIC, Linezolid (MDREC 1229 [2]; [21]) | Antibiotic MIC, Vancomycin (MDREC 1229 [2]; [21]) | Antibiotic MIC, Linezolid (E. coli [6]; linezolid combined with peptide at 6 μg/ml) | Antibiotic MIC, Vancomycin (E. coli [6]; vancomycin combined with peptide at 8 μg/ml)
1 µg/mL: Antibiotic MIC, Erythromycin (A. baumannii [1]; [13]) | Antibiotic MIC, Erythromycin (MDREC 1229 [2]; [22]) | Peptide MIC during treatment with linezolid (MDRAB 12035; linezolid […] (Conc./MIC 1/2)) | Peptide MIC during treatment with vancomycin (MDRAB 12035; [32]) | Antibiotic MIC, Erythromycin (E. coli [6]; erythromycin combined with peptide at 6 μg/ml) | Antibiotic MIC, Erythromycin (E. coli [6]; erythromycin combined with peptide at 8 μg/ml) | Peptide MIC during treatment with antibiotic (MDREC 1229 [7]; linezolid […] (Conc./MIC 1/2)) | Peptide MIC during treatment with antibiotic (MDREC 1229 [7]; [32])
higher level than the PapMA-1 peptide: Synergistic effect of antibacterial activity with existing antibiotics compared with PapMA-1 (E. coli [6]; E. coli and MDREC1229)
2 µg/mL: Antibiotic MIC, Erythromycin (A. baumannii [1]; [12]) | Antibiotic MIC, Erythromycin (MDREC 1229 [2]; [21]) | Peptide MIC during treatment with vancomycin (MDRAB 12035; [31]) | Peptide MIC during treatment with antibiotic (A. baumannii [3]; linezolid […] (Conc./MIC 1/2)) | Peptide MIC during treatment with antibiotic (MDREC 1229 [7]; erythromycin 32 μg/ml (Conc./MIC 1/8)) | Peptide MIC during treatment with antibiotic (MDREC 1229 [7]; erythromycin 64 μg/ml (Conc./MIC 1/4)) | Peptide MIC during treatment with antibiotic (MDREC 1229 [7]; erythromycin […] (Conc./MIC 1/2)) | Peptide MIC during treatment with antibiotic (MDREC 1229 [7]; [31])
0.125 µg/mL: Antibiotic MIC, Erythromycin (E. coli [6]; erythromycin combined with peptide at 32 μg/ml)
0.25 µg/mL: Peptide MIC during treatment with antibiotic (A. baumannii [3]; [31]) | Antibiotic MIC, Erythromycin (E. coli [6]; erythromycin combined with peptide at 16 μg/ml)
0.5 µg/mL: Antibiotic MIC, Erythromycin (A. baumannii [1]; [14]) | Antibiotic MIC, Erythromycin (MDREC 1229 [2]; [23]) | Peptide MIC during treatment with antibiotic (A. baumannii [3]; vancomycin […] (Conc./MIC 1/4))
32 µg/mL: Antibiotic MIC, Erythromycin (A. baumannii [1]; [9]) | Antibiotic MIC, Erythromycin (A. baumannii [1]; [10]) | Antibiotic MIC, Linezolid (A. baumannii [1]; [12]) | Antibiotic MIC, Vancomycin (A. baumannii [1]; [12]) | Antibiotic MIC, Erythromycin (MDREC 1229 [2]; [18]) | Antibiotic MIC, Linezolid (MDREC 1229 [2]; [20]) | Antibiotic MIC, Vancomycin (MDREC 1229 [2]; [20]) | Minimal inhibitory concentration MIC (MDRAB 12036) | Antibiotic MIC, Erythromycin (E. coli [6]; erythromycin combined with peptide at 2 μg/ml) | Antibiotic MIC, Vancomycin (E. coli [6]; vancomycin combined with peptide at 6 μg/ml)
4 µg/mL: Antibiotic MIC, Linezolid (A. baumannii [1]; [14]) | Antibiotic MIC, Erythromycin (MDREC 1229 [2]; [20]) | Antibiotic MIC, Linezolid (MDREC 1229 [2]; [23]) | Antibiotic MIC, Vancomycin (MDREC 1229 [2]; [23]) | Peptide MIC during treatment with erythromycin (MDRAB 12035; [25]) | Peptide MIC during treatment with erythromycin (MDRAB 12035; [26]) | Peptide MIC during treatment with erythromycin (MDRAB 12035; [27]) | Peptide MIC during treatment with linezolid (MDRAB 12035; [29]) | Peptide MIC during treatment with linezolid (MDRAB 12035; linezolid […] (Conc./MIC 1/4)) | Peptide MIC during treatment with vancomycin (MDRAB 12035; vancomycin […] (Conc./MIC 1/4)) | Peptide MIC during treatment with vancomycin (MDRAB 12035; vancomycin […] (Conc./MIC 1/8)) | Peptide MIC during treatment with antibiotic (A. baumannii [3]; [25]) | Peptide MIC during treatment with antibiotic (A. baumannii [3]; [26]) | Peptide MIC during treatment with antibiotic (A. baumannii [3]; [27]) | Peptide MIC during treatment with antibiotic (A. baumannii [3]; linezolid 64 μg/ml (Conc./MIC 1/4)) | Peptide MIC during treatment with antibiotic (A. baumannii [3]; vancomycin […] (Conc./MIC 1/8)) | Antibiotic MIC, Linezolid (E. coli [6]; linezolid combined with peptide at 32 μg/ml) | Antibiotic MIC, Vancomycin (E. coli [6]; vancomycin combined with peptide at 32 μg/ml) | Peptide MIC during treatment with antibiotic (MDREC 1229 [7]; [29]) | Peptide MIC during treatment with antibiotic (MDREC 1229 [7]; linezolid […] (Conc./MIC 1/4)) | Peptide MIC during treatment with antibiotic (MDREC 1229 [7]; vancomycin […] (Conc./MIC 1/4))
8 µg/mL: Antibiotic MIC, Linezolid (MDREC 1229 [2]; [22]) | Antibiotic MIC, Vancomycin (MDREC 1229 [2]; [22]) | Peptide MIC during treatment with antibiotic (A. baumannii [3]; linezolid 32 μg/ml (Conc./MIC 1/8)) | Antibiotic MIC, Erythromycin (E. coli [6]; erythromycin combined with peptide at 4 μg/ml) | Antibiotic MIC, Linezolid (E. coli [6]; linezolid combined with peptide at 8 μg/ml) | Antibiotic MIC, Linezolid (E. coli [6]; linezolid combined with peptide at 16 μg/ml) | Antibiotic MIC, Vancomycin (E. coli [6]; vancomycin combined with peptide at 16 μg/ml) | Peptide MIC during treatment with antibiotic (MDREC 1229 [7]; vancomycin […] (Conc./MIC 1/8))
0 µg/mL: Antibiotic MIC, Erythromycin (A. baumannii [1]; [15]) | Antibiotic MIC, Linezolid (A. baumannii [1]; [15]) | Antibiotic MIC, Vancomycin (A. baumannii [1]; [15]) | Antibiotic MIC, Erythromycin (A. baumannii [1]; [16]) | Antibiotic MIC, Linezolid (A. baumannii [1]; [16]) | Antibiotic MIC, Vancomycin (A. baumannii [1]; [16]) | Antibiotic MIC, Erythromycin (MDREC 1229 [2]; [24]) | Antibiotic MIC, Linezolid (MDREC 1229 [2]; [24]) | Antibiotic MIC, Vancomycin (MDREC 1229 [2]; [24]) | Peptide MIC during treatment with erythromycin (MDRAB 12035; [28]) | Peptide MIC during treatment with linezolid (MDRAB 12035; [30]) | Peptide MIC during treatment with antibiotic (A. baumannii [3]; [28]) | Peptide MIC during treatment with antibiotic (A. baumannii [3]; linezolid […] (Conc./MIC 1)) | Peptide MIC during treatment with antibiotic (A. baumannii [3]; [32]) | Antibiotic MIC, Erythromycin (E. coli [6]; erythromycin combined with peptide at 64 μg/ml) | Antibiotic MIC, Linezolid (E. coli [6]; linezolid combined with peptide at 64 μg/ml) | Antibiotic MIC, Vancomycin (E. coli [6]; vancomycin combined with peptide at 64 μg/ml) | Peptide MIC during treatment with antibiotic (MDREC 1229 [7]; erythromycin […] (Conc./MIC 1)) | Peptide MIC during treatment with antibiotic (MDREC 1229 [7]; [30]) | Peptide MIC (E. coli [8]; with Erythromycin […] (Conc./MIC 1)) | Peptide MIC (E. coli [8]; with Linezolid […] (Conc./MIC 1)) | Peptide MIC (E. coli [8]; with Vancomycin 1024 μg/ml (Conc./MIC 1))
